Data as given in the NIST ThermoML archive (doi:10.1007/s10765-013-1546-4).

Conditions: Liquid; for viscosity: Vibrating wire viscometry; for vapor or sublimation pressure: Closed cell (Static) method

CCF [fluoroethane]
viscosity [mPa·s]
Conditions	5000 kPa	10000 kPa	15000 kPa	20000 kPa	25000 kPa	30000 kPa
243.17 K	0.232	0.2433	0.2538	0.2643	0.2748	0.285
253.16 K	0.2037	0.2128	0.2214	0.2315	0.2396	0.2489
263.17 K	0.1834	0.1926	0.2012	0.2097	0.2177	0.2262
273.15 K	0.1642	0.1729	0.1812	0.1894	0.1971	0.205
283.15 K	0.147	0.1553	0.1637	0.1713	0.1794	0.1868
293.15 K	0.1322	0.1406	0.1489	0.1566	0.1642	0.1717
303.15 K	0.1196	0.1279	0.136	0.1437	0.1512	0.1584
313.14 K	0.1078	0.1164	0.1242	0.132	0.1393	0.1468
323.16 K	0.0968	0.1054	0.1134	0.1209	0.1282	0.1356
333.16 K	0.0866	0.0958	0.1039	0.1113	0.1181	0.1247
343.16 K	0.0766	0.0866	0.0953	0.1027	0.1094	0.1159
353.16 K	0.0666	0.0782	0.0871	0.0946	0.1014	0.108
363.16 K	0.0562	0.0699	0.0796	0.0873	0.0943	0.1005

Conditions	vapor or sublimation pressure [kPa]	viscosity [mPa·s]
243.17 K	140	0.2238
253.16 K	210	0.1961
263.17 K	310	0.175
273.15 K	440	0.1565
283.15 K	600	0.1395
293.15 K	810	0.1247
303.15 K	1060	0.1122
313.14 K	1360	0.1003
323.16 K	1730	0.0902
333.16 K	2170	0.0803
343.16 K	2680	0.0708
353.16 K	3280	0.0614
363.16 K	3990	0.0514
